By ΔTm is commonly meant the shift of the melting midpoint relative to a reference.

This passage reports ΔTm and binding results from paper PMC13107025 (2025).

Assay [1] has as its system dsDNA (DNA, duplex) CAATCGGATCGAATTCGATCCGATTG
Put plainly: FRET melting (real-time PCR). To be noted: 50 mM KCl; Tris-HCl pH 7.4; 1 μM oligonucleotide, EKB 8 eq (8 μM). (In general: Quantitative PCR measures a nucleic acid by following its amplification.)

Assay [2] deals with G4 (DNA, G4) GGGGAGGGGCTGGGAGGGCCCGGAGGGGGCTGGGCCGGGGACCCGGGAGGGGTCGGGACGGGGCGGGG
The experiment in a line: FRET melting (real-time PCR). To be noted: 50 mM KCl; Tris-HCl pH 7.4; 1 μM oligonucleotide, EKB 8 eq (8 μM).

In assay [3] the test system is c-Myc G4 (DNA, G4) GCGCTTATGGGGAGGGTGGGGAGGGTGGGGAAGGTGGGGAGGAGAC
The experiment in a line: FRET melting (real-time PCR). To be noted: 50 mM KCl; Tris-HCl pH 7.4; 1 μM oligonucleotide, EKB 8 eq (8 μM).

The subject of assay [4] is c-KIT G4 (DNA, G4) AGGGAGGGCGCTGGGAGGAGGGG
The experiment in a line: FRET melting (real-time PCR). To be noted: 50 mM KCl; Tris-HCl pH 7.4; 1 μM oligonucleotide, EKB 8 eq (8 μM).

Assay [5] relates to Bcl-2 G4 (DNA, G4) CGGGCGGGAGCGCGGCGGGCGGGCGGG
Put plainly: FRET melting (real-time PCR). The settings on record: 50 mM KCl; Tris-HCl pH 7.4; 1 μM oligonucleotide, EKB 8 eq (8 μM).

For assay [6], the system named is k-RAS G4 (DNA, G4) AGGGCGGTGTGGGAAGAGGGAAGAGGGGGAGG
Put plainly: FRET melting (real-time PCR). The settings on record: 50 mM KCl; Tris-HCl pH 7.4; 1 μM oligonucleotide, EKB 8 eq (8 μM).

Assay [7] concerns c-Myc G4 (UV titration) (DNA, G4) GCGCTTATGGGGAGGGTGGGGAGGGTGGGGAAGGTGGGGAGGAGAC
Put plainly: UV-visible absorption titration. To be noted: 100 mM KCl; 10 mM Tris-HCl pH 7.4, room temperature; EKB 20 μM, G4:EKB 1:1 to 8:1.

Assay [8] concerns Bcl-2 G4 (UV titration) (DNA, G4) CGGGCGGGAGCGCGGCGGGCGGGCGGG
Put plainly: UV-visible absorption titration. To be noted: 100 mM KCl; 10 mM Tris-HCl pH 7.4, room temperature; EKB 20 μM, G4:EKB 1:1 to 8:1.

The test system of assay [9] is c-KIT G4 (UV titration) (DNA, G4) AGGGAGGGCGCTGGGAGGAGGGG
The experiment in a line: UV-visible absorption titration. The settings on record: 100 mM KCl; 10 mM Tris-HCl pH 7.4, room temperature; EKB 20 μM, G4:EKB 1:1 to 8:1.

Assay [10] has as its system k-RAS G4 (UV titration) (DNA, G4) AGGGCGGTGTGGGAAGAGGGAAGAGGGGGAGG
The experiment in a line: UV-visible absorption titration. The settings on record: 100 mM KCl; 10 mM Tris-HCl pH 7.4, room temperature; EKB 20 μM, G4:EKB 1:1 to 8:1.

With `CC(C)=CCc1cc(-c2cc(=O)c3c(O)cc(O)c(CC=C(C)C)c3o2)cc(O)c1O`, the ΔTm entry in assay [1] was “–1.16 °C”; in assay [2], 2.12 °C; in assay [3], 3.90 °C; in assay [4] it was 4.17 °C; in assay [5] it was 7.09 °C; in assay [6], 3.22 °C. Further, the binding entry in [7], in [8], in assay [9] and in [10] was “yes” each time.
